Experimental findings from BindingDB's records for doi:10.1021/jm00159a032 (1986) are described below.

Each structure is given as a SMILES string. pIC50: −log10 of the molar value.

The target in the assay is Thymidylate synthase (Streptococcus faecium). The assay can be described thus: Inhibitory activity against thymidylate synthase of Streptococcus faecium.

In turn, `C#CN(Cc1ccc2nc(N)[nH]c(=O)c2c1)c1ccc(C(=O)NC(CCC(=O)NC(CCC(=O)NC(CCC(=O)O)C(=O)O)C(=O)O)C(=O)O)cc1` (stereo unspecified) [4-[4-(4-{4-[(2-Amino-4-hydroxy-quinazolin-6-ylmethyl)-ethynyl-amino]-benzoylamino}-4-carboxy-butyrylamino)-4-carboxy-butyrylamino]-4-carboxy-butyric acid anion] showed a pIC50 of 8.26.

The pIC50 is −log10 of the IC50, conventionally taken in molar units. Lower therefore signals a high IC50.
